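Tested at 5 concentrations; 48 h exposure; 96-well plates; endpoints linearly interpolated, else capped at highest concentration. GI50: concentration for 50% inhibition of growth.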 Active and inactive are the calls of the source. No stated cut-off is given here; in the data, active = GI50 up to about 1.1 µM and inactive = higher.
What was measured:
Assay in all cases: DTP human tumour cell line panel, 48 h
[1] = tested on: HCC 2998
[2] = tested on: XF498
[3] = tested on: SN12C
[4] = tested on: SR
[5] = tested on: HT-29
[6] = tested on: Malme-3M
[7] = tested on: TK-10
[8] = tested on: HOP-62
[9] = tested on: DLD-1
[10] = tested on: NCI-H522
[11] = tested on: UACC-257
[12] = tested on: RXF 631
[13] = tested on: OVCAR-8
[14] = tested on: LXFL 529
[15] = tested on: DMS-273
[16] = tested on: LOX IMVI
[17] = tested on: EKVX
[18] = tested on: NCI-H460
[19] = tested on: HCT-15
[20] = tested on: OVCAR-4
[21] = tested on: ACHN
[22] = tested on: OVCAR-5
[23] = tested on: K562
[24] = tested on: SNB-19
[25] = tested on: 786-0
[26] = tested on: IGROV-1
[27] = tested on: SK-MEL-28
[28] = tested on: CCRF-CEM
[29] = tested on: M19-MEL
[30] = tested on: MOLT-4
[31] = tested on: NCI-H23
[32] = tested on: OVCAR-3
[33] = tested on: CAKI-1
[34] = tested on: HL-60
[35] = tested on: SF-268
[36] = tested on: HCT-116
[37] = tested on: SW-620
[38] = tested on: SF-539
[39] = tested on: U-251
[40] = tested on: HOP-18
[41] = tested on: DMS-114
[42] = tested on: UACC-62
[43] = tested on: KM-20L2
[44] = tested on: SK-OV-3
[45] = tested on: RXF 393
[46] = tested on: NCI-H226
[47] = tested on: KM12
[48] = tested on: A549
[49] = tested on: UO-31
[50] = tested on: RPMI-8226
[51] = tested on: SK-MEL-2
[52] = tested on: COLO 205
[53] = tested on: M14
[54] = tested on: SF-295
[55] = tested on: A498
[56] = tested on: SK-MEL-5
[57] = tested on: SNB-75
[58] = tested on: SNB-78
[59] = tested on: HOP-92

COc1ccc(/C=C/C(=O)c2sc(-n3nc(-c4ccccc4)cc3-c3ccccc3)nc2C)cc1OC
GI50 [1]: 51.1 µM (inactive)
GI50 [2]: 49.3 µM (inactive)
GI50 [3]: 31.6 µM (inactive)
GI50 [4]: 24.9 µM (inactive)
GI50 [5]: 30.1 µM (inactive)
GI50 [6]: 65.8 µM (inactive)
GI50 [7]: 62.5 µM (inactive)
GI50 [8]: 57.1 µM (inactive)
GI50 [9]: 21.8 µM (inactive)
GI50 [10]: 19.5 µM (inactive)
GI50 [11]: 39.5 µM (inactive)
GI50 [12]: 24.5 µM (inactive)
GI50 [13]: 31.4 µM (inactive)
GI50 [14]: 30.3 µM (inactive)
GI50 [15]: 36.6 µM (inactive)
GI50 [16]: 28.9 µM (inactive)
GI50 [17]: 26.1 µM (inactive)
GI50 [18]: 56.8 µM (inactive)
GI50 [19]: 32.4 µM
GI50 [20]: 38.5 µM (inactive)
GI50 [21]: 49.8 µM (inactive)
GI50 [22]: 32.1 µM (inactive)
GI50 [23]: 23.6 µM (inactive)
GI50 [24]: 36.6 µM (inactive)
GI50 [25]: 36.4 µM (inactive)
GI50 [26]: 24.3 µM (inactive)
GI50 [27]: 37.9 µM (inactive)
GI50 [28]: 23.2 µM (inactive)
GI50 [29]: 42.4 µM (inactive)
GI50 [30]: 20.3 µM (inactive)
GI50 [31]: 34.9 µM (inactive)
GI50 [32]: 20.6 µM (inactive)
GI50 [33]: 54.2 µM (inactive)
GI50 [34]: 25.2 µM (inactive)
GI50 [35]: 27.4 µM (inactive)
GI50 [36]: 31.3 µM (inactive)
GI50 [37]: 43.8 µM (inactive)
GI50 [38]: 26.7 µM (inactive)
GI50 [39]: 28.8 µM (inactive)
GI50 [40]: > 100 µM (inactive)
GI50 [41]: 28.1 µM (inactive)
GI50 [42]: 13.9 µM (inactive)
GI50 [43]: 20.9 µM (inactive)
GI50 [44]: > 100 µM (inactive)
GI50 [45]: 57.1 µM (inactive)
GI50 [46]: 31.6 µM (inactive)
GI50 [47]: 28.1 µM (inactive)
GI50 [48]: 39.4 µM (inactive)
GI50 [49]: 42 µM (inactive)
GI50 [50]: 22.1 µM (inactive)
GI50 [51]: 62.1 µM (inactive)
GI50 [52]: 36.6 µM (inactive)
GI50 [53]: 62.8 µM (inactive)
GI50 [54]: 28.1 µM (inactive)

Cn1cnnc1Sc1c([N+](=O)[O-])ncn1C
GI50 [1]: > 100 µM (inactive)
GI50 [2]: > 100 µM (inactive)
GI50 [3]: > 100 µM (inactive)
GI50 [55]: > 100 µM (inactive)
GI50 [4]: 26.5 µM (inactive)
GI50 [5]: > 100 µM (inactive)
GI50 [6]: 16.4 µM (inactive)
GI50 [7]: > 100 µM (inactive)
GI50 [8]: > 100 µM (inactive)
GI50 [9]: 38.5 µM (inactive)
GI50 [10]: 12.6 µM (inactive)
GI50 [11]: > 100 µM (inactive)
GI50 [12]: > 100 µM (inactive)
GI50 [13]: > 100 µM (inactive)
GI50 [14]: 20 µM (inactive)
GI50 [56]: > 100 µM (inactive)
GI50 [15]: > 100 µM (inactive)
GI50 [57]: > 100 µM (inactive)
GI50 [16]: 35.2 µM (inactive)
GI50 [17]: > 100 µM (inactive)
GI50 [18]: > 100 µM (inactive)
GI50 [58]: 45.9 µM (inactive)
GI50 [20]: > 100 µM (inactive)
GI50 [21]: > 100 µM (inactive)
GI50 [22]: > 100 µM (inactive)
GI50 [23]: 29.2 µM (inactive)
GI50 [24]: > 100 µM (inactive)
GI50 [25]: > 100 µM (inactive)
GI50 [26]: > 100 µM (inactive)
GI50 [27]: 36.9 µM (inactive)
GI50 [28]: 29.4 µM (inactive)
GI50 [30]: 31 µM (inactive)
GI50 [31]: 84.7 µM (inactive)
GI50 [32]: > 100 µM (inactive)
GI50 [33]: > 100 µM (inactive)
GI50 [35]: > 100 µM (inactive)
GI50 [36]: > 100 µM (inactive)
GI50 [37]: 72.4 µM (inactive)
GI50 [38]: > 100 µM (inactive)
GI50 [39]: > 100 µM (inactive)
GI50 [40]: 13.5 µM (inactive)
GI50 [41]: > 100 µM (inactive)
GI50 [42]: > 100 µM (inactive)
GI50 [59]: 26.5 µM (inactive)
GI50 [44]: > 100 µM (inactive)
GI50 [46]: > 100 µM (inactive)
GI50 [47]: > 100 µM (inactive)
GI50 [48]: > 100 µM (inactive)
GI50 [49]: > 100 µM (inactive)
GI50 [50]: 40.5 µM (inactive)
GI50 [51]: 50.6 µM (inactive)
GI50 [52]: 34.3 µM (inactive)
GI50 [53]: > 100 µM (inactive)
GI50 [54]: > 100 µM (inactive)

O=[N+]([O-])c1ccc(C2CC(c3ccccc3Cl)=Nc3ccccc3S2)cc1 (configuration not stated)
GI50 [1]: 23.9 µM (inactive)
GI50 [2]: 7.13 µM (inactive)
GI50 [3]: 4.02 µM (inactive)
GI50 [55]: 1.87 µM (inactive)
GI50 [4]: 2.01 µM (inactive)
GI50 [5]: 4.35 µM (inactive)
GI50 [6]: 10.9 µM (inactive)
GI50 [7]: 18.8 µM (inactive)
GI50 [8]: 22.3 µM (inactive)
GI50 [9]: 2.3 µM (inactive)
GI50 [10]: 2.89 µM (inactive)
GI50 [11]: 12 µM (inactive)
GI50 [12]: 5.74 µM (inactive)
GI50 [13]: 2.2 µM (inactive)
GI50 [14]: 2.84 µM (inactive)
GI50 [56]: 3.95 µM (inactive)
GI50 [15]: 4.71 µM (inactive)
GI50 [57]: 4.21 µM (inactive)
GI50 [16]: 3.7 µM (inactive)
GI50 [17]: 14.5 µM (inactive)
GI50 [18]: 6.85 µM (inactive)
GI50 [58]: 16.1 µM (inactive)
GI50 [19]: 5.35 µM
GI50 [20]: 9.84 µM (inactive)
GI50 [21]: 7.85 µM (inactive)
GI50 [22]: 12.9 µM (inactive)
GI50 [23]: 1.75 µM (inactive)
GI50 [24]: 4.3 µM (inactive)
GI50 [25]: 3.69 µM (inactive)
GI50 [26]: 7.23 µM (inactive)
GI50 [27]: 8.34 µM (inactive)
GI50 [28]: 2.07 µM (inactive)
GI50 [29]: 10.5 µM (inactive)
GI50 [30]: 1.56 µM (inactive)
GI50 [31]: 6.15 µM (inactive)
GI50 [32]: 8.79 µM (inactive)
GI50 [33]: 4.46 µM (inactive)
GI50 [34]: 2.01 µM (inactive)
GI50 [35]: 4.15 µM (inactive)
GI50 [36]: 1.96 µM (inactive)
GI50 [37]: 1.78 µM (inactive)
GI50 [38]: 6.65 µM (inactive)
GI50 [39]: 5.27 µM (inactive)
GI50 [40]: 3.3 µM (inactive)
GI50 [41]: 2.19 µM (inactive)
GI50 [42]: 3.99 µM (inactive)
GI50 [59]: 6 µM (inactive)
GI50 [43]: 4.74 µM (inactive)
GI50 [44]: 29 µM (inactive)
GI50 [45]: 3.26 µM (inactive)
GI50 [46]: 6.87 µM (inactive)
GI50 [47]: 3.08 µM (inactive)
GI50 [48]: 5.69 µM (inactive)
GI50 [49]: 4.88 µM (inactive)
GI50 [50]: 1.66 µM (inactive)
GI50 [51]: 11.7 µM (inactive)
GI50 [52]: 15.8 µM (inactive)
GI50 [53]: 12.1 µM (inactive)
GI50 [54]: 7.5 µM (inactive)

From ChEMBL document CHEMBL1201862, “PubChem BioAssay data set” (2004)
